The target of series [1] is T1, human amylin receptor (calcitonin receptor co-expressed with receptor activity modifying protein, RAMP3) (hAMYR3) (Homo sapiens, UniProt O60896+P30988).
T1 construct: expressed in transfected cells
T1 sequence (P30988 25-474): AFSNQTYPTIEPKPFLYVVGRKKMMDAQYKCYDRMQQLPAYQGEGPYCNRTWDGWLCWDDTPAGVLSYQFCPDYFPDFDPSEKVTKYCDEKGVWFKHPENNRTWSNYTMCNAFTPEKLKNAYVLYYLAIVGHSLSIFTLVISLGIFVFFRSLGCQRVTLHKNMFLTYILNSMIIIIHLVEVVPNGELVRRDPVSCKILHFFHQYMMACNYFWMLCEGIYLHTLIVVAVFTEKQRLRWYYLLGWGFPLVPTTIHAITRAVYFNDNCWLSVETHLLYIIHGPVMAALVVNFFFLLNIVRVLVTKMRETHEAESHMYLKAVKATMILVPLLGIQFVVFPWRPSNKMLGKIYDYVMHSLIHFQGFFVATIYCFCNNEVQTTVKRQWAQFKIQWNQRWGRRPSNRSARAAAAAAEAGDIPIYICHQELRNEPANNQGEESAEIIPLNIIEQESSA
T1 sequence (O60896 24-148 partner): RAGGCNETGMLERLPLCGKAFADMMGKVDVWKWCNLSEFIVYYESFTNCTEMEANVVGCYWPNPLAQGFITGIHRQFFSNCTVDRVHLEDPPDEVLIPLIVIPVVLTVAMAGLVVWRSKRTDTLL
Kind of series: cAMP production in 1321N1 cells with stable recombinant expression of human amylin receptor (hAMYR3). Type of series: cell-based. The following applies: for Ratio (selectivity hAMYR vs hCTR, ratio of EC50 values at the two receptors): EC50 hCTR / EC50 hAMYR3; for EC50: cAMP, 1321N1 cells, assay buffer with 0.1% BSA, read-out: EC50 (pM) hAMYR3. The method, boiled down: (§1)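 Thawed cells in HBSS/0.1% BSA/25 mM HEPES pH 7.4 with 0.5 mM IBMX were incubated with peptides 30 min at room temperature; cAMP read by HTRF. EC50 from 4-parameter fit of % activation relative to maximal amylin or calcitonin effect.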

Series [2] in a line: Thioflavin T fibrillation assay. Type of series: physicochemical. The following applies: ThT fibrillation assay; peptide 1 mg/mL in 25 mM sodium acetate buffer pH 4.0; 6 days at 37 °C with shaking; >144 h = no increase. The gist of the method: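 Peptides at 1 mg/mL in 25 mM sodium acetate pH 4.0 with ThT (from 0.25 mM stock), incubated 6 days at 37 °C with intermittent orbital shaking at 500–750 rpm. Fluorescence (ex 444/em 480 nm) read every 30 min; value is average time to a rise in baseline-corrected signal.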

The nature of series [3]: Pharmacokinetic determination via IV and SC administration in Sprague Dawley rats. The following applies: male, rat, plasma, 20 nmol/kg.
For series [4], the target named is T2, human calcitonin receptor (hCTR) (Homo sapiens, UniProt P30988).
T2 construct: expressed in transfected cells
T2 sequence (P30988 25-474): T1 sequence (P30988 25-474)
Briefly: cAMP production in 1321N1 cells with stable recombinant expression of human calcitonin receptor (hCTR). Type of series: cell-based. The following applies: cAMP, 1321N1 cells, assay buffer with 0.1% BSA; read-out: EC50 (pM) hCTR. The method, boiled down:
as §1
On the technique in general: Changes in cAMP serve as a functional read-out for many G protein-coupled receptors.

In series [5] the target is T3, rat calcitonin receptor (rat CTR) (Rattus norvegicus, UniProt P32214).
T3 construct: expressed in transfected cells
T3 sequence (P32214 25-516): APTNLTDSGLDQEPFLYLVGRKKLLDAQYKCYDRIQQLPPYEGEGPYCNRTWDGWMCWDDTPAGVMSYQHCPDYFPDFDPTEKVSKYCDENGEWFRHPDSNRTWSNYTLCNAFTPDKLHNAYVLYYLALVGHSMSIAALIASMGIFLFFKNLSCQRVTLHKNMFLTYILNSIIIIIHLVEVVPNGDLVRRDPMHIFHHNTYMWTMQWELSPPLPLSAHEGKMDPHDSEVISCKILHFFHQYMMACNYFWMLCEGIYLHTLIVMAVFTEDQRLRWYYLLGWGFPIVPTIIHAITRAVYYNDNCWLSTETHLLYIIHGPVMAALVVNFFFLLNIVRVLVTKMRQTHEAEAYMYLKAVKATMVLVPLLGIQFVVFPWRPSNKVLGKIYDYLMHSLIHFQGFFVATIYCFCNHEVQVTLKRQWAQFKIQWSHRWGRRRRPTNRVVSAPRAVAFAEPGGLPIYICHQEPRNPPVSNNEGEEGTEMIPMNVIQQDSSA
Briefly: cAMP production in HEK cells with stable recombinant expression of rat calcitonin receptor (rat CTR). The following applies: assay buffer with 0.1% BSA. The class given is cell-based. The method, then:
(§2) The functional activities of lipidated pramlintide analogue peptides, such as cAMP production, were tested in 1321N1 cell line with stable recombinant expression of human calcitonin receptor (hCTR) or human amylin receptor (calcitonin receptor co-expressed with receptor activity modifying protein, RAMP3) (hAMYR3) or HEK cells with stable recombinant expression of rat calcitonin receptor (rat CTR) or rat amylin receptor (calcitonin receptor co-expressed with receptor activity modifying protein, RAMP3) (Rat AMYR3).
(§3) Cryopreserved cell stock was thawed rapidly in a water-bath, suspended in assay buffer (0.1% BSA (Sigma # A3059) in HBSS (Sigma # H8264) with 25 mM HEPES, pH 7.4 and containing 0.5 mM IB MX (Sigma# 17018)) and spun at 240×g for 5 minutes. Cells were re-suspended in assay buffer at a batch-dependent optimized concentration (e.g. hCTR cells at 0.125×10^5 cells/mL, hAMYR3 cells at 0.125×10^5 cells/mL, rat CTR cells at 1x10^5 cells/mL, rat AMYR3 at 2×10^5 cells/mL).
(§4) The test peptide stock was prepared in DMSO and diluted in assay buffer to reach stated concentrations and transferred in duplicates into a 384-black shallow well microtitre assay plate (Corning # 3676). Cells were added to the assay plate, incubated at room temperature for 30 minutes and the cAMP level measured using cAMP dynamic 2 HTRF kit (Cisbio, Cat # 62AM4PEJ), following the two step protocol as per manufacturer's recommendations. The plates were read on an Envision (Perkin Elmer) using excitation wavelength of 320 nm and emission wavelengths of 620nm & 665 nm.
(§5) Data was transformed to % Delta F as described in the manufacturer's guidelines and analyzed as percent activation of maximal amylin or calcitonin effect by 4-parameter logistic fit to determine EC50 values. The selectivity of a peptide to hAMYR vs hCTR is defined as a ratio of EC50 values at the two receptors.

In another series the test system is lean rats. Kind of series: Rat acute food intake study. The class given is in vivo. The following applies: lean male Sprague Dawley rats, 20 nmol/kg subcutaneously. The method, then: Male Sprague Dawley rats were obtained from Taconic Denmark, ApS at approximately 7 weeks of age. Rats were implanted with a microchip for identification, housed 4/cage with enrichment, free access to food and water, and allowed one week acclimatisation while non-invasive characterization was performed. Rats were on a 12:12 light:dark cycle that switches at 1pm:1am. Food intake was monitored via the HM2 system (Lafayette Instrument) that allows for monitoring in a home cage. As each rat enters an access tunnel to feed, an IR beam is broken, and the implanted microchip is read. Resulting changes to food weight is then assigned to the specific animal. Social order has shown no impact to overall feeding patterns and amounts.
Rats were sorted into groups based on Day -1 body weight and 24-hour accumulated food intake (n=7 per group). On Day 0 rats were weighed, then fasted for 6 hours. Thirty (30) minutes prior to the reintroduction of food, rats were dosed subcutaneously (5 mL/kg) with 20 nmol/kg of test compound or 60 nmol/kg peptide 1 (pramlintide) diluted in an appropriate vehicle, after which food was returned, and lights went out. Automated food intake was monitored for the following 3 days, and rats were weighed once per day.
Food intake per rat was batched into 1-hour intervals and integrated into Gubra's GubraView data management system. Discrete food intake data was exported into MS Excel from which cumulative food intake data was generated. Cumulative food intake data was then transposed into GraphPad Prism (v8.0.1) for analysis of dark period feeding

The target of series [6] is T4, rat amylin receptor (calcitonin receptor co-expressed with receptor activity modifying protein, RAMP3) (Rat AMYR3) (Rattus norvegicus, UniProt P32214+Q9JJ73).
T4 construct: expressed in transfected cells
T4 sequence (P32214 25-516): T3 sequence (P32214 25-516)
T4 sequence (Q9JJ73 23-147 partner): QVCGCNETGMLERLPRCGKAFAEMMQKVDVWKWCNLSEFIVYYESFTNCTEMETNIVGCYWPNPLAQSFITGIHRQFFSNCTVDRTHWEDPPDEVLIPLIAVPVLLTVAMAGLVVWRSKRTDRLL
Briefly: cAMP production in HEK cells with stable recombinant expression of rat amylin receptor (Rat AMYR3). Type of series: cell-based. The following applies: assay buffer with 0.1% BSA. The method, then:
as §2, §3, §4, §5

The structures appear in SMILES notation. Numbered stars: 1 amine (or outer) side, 2 acyl side, 3 side chain; on linkers, the order of the positions; unused ones are H or OH. Bridge positions count the residues as written; N and C are the ends. Square brackets hold non-standard residues; d marks the D form. Side chains are listed from the residue outwards. Peptide text beside a SMILES is read from it. * marks the point of attachment. C20 diacid = O=C(O)CCCCCCCCCCCCCCCCCCC(=O)*; C18 diacid = O=C(O)CCCCCCCCCCCCCCCCC(=O)*; γGlu = O=C(O)[C@H](CCC(=O)[*:2])N[*:1]; Aib = CC(C)(N)C(=O)O

Here are results for two molecules from patent publication US20240067693A1, “POLYPEPTIDES AND USES THEREOF” (MEDIMMUNE LIMITED, priority 2020, published 2024).

For the molecule `CC[C@H](C)[C@H](NC(=O)[C@@H]1CCCN1C(=O)CNC(=O)[C@H](Cc1ccccc1)NC(=O)[C@H](CC(N)=O)NC(=O)C(C)(C)NC(=O)[C@H](CO)NC(=O)[C@H](CO)NC(=O)[C@H](Cc1c[nH]cn1)NC(=O)[C@H](CCCNC(=N)N)NC(=O)[C@H](CC(C)C)NC(=O)[C@H](Cc1ccccc1)NC(=O)[C@H](CC(N)=O)NC(=O)[C@H](C)NC(=O)[C@H](CC(C)C)NC(=O)[C@H](CCCNC(=N)N)NC(=O)[C@H](CCC(N)=O)NC(=O)[C@@H](NC(=O)[C@H](C)NC(=O)[C@@H]1CSSC[C@H](NC(=O)[C@H](CCCCN)NC(=O)[C@@H](N)CCCCNC(=O)CC[C@H](NC(=O)CC[C@H](NC(=O)CCCCCCCCCCCCCCCCC(=O)O)C(=O)O)C(=O)O)C(=O)N[C@@H](CC(N)=O)C(=O)N[C@@H]([C@@H](C)O)C(=O)N[C@@H](C)C(=O)N[C@@H]([C@@H](C)O)C(=O)N1)[C@@H](C)O)C(=O)N[C@@H](CC(C)C)C(=O)N1CCC[C@H]1C(=O)N1CCC[C@H]1C(=O)N[C@H](C(=O)N[C@@H](CC(N)=O)C(=O)N[C@H](C(=O)NCC(=O)N[C@@H](CO)C(=O)N[C@@H](CC(N)=O)C(=O)N[C@H](C(=O)N[C@@H](Cc1ccc(O)cc1)C(N)=O)[C@@H](C)O)C(C)C)[C@@H](C)O` [Peptide 66, K(γE-γE-C18diacid)K[CNTATC]ATQRLANFLRHSS(Aib)NFGPILPPTNVGSNTY-amide] (H-K([γGlu-γGlu-C18 diacid])KCNTATCATQRLANFLRHSS[Aib]NFGPILPPTNVGSNTY-NH2; disulfide 3-8), the “Ratio (selectivity hAMYR vs hCTR, ratio of EC50 values at the two receptors)” value in series [1] amounted to 17. Further, the concentration for a half-maximal effect (EC50) (in general, the concentration giving half of the maximal effect) was 418 pM in series [1] and 7010 pM in series [4]. Also, the “Time taken to detect increase in fluorescence intensity” value in series [2] is listed as greater than 144 h. Further, the half-life (commonly the time in which the quantity being followed falls by half) in series [3] (iv) was 9.4 h; in series [3] (sc), 12.2 h.
As to `CC[C@H](C)[C@H](NC(=O)[C@@H]1CCCN1C(=O)CNC(=O)[C@H](Cc1ccccc1)NC(=O)[C@H](CC(N)=O)NC(=O)[C@H](CC(N)=O)NC(=O)[C@H](CO)NC(=O)[C@H](CO)NC(=O)[C@H](Cc1c[nH]cn1)NC(=O)[C@H](CCCNC(=N)N)NC(=O)[C@H](CC(C)C)NC(=O)[C@H](Cc1ccccc1)NC(=O)[C@H](CCC(=O)O)NC(=O)[C@H](C)NC(=O)[C@H](CC(C)C)NC(=O)[C@H](CCCNC(=N)N)NC(=O)[C@H](CCC(N)=O)NC(=O)[C@@H](NC(=O)[C@H](C)NC(=O)[C@@H]1CSSC[C@H](NC(=O)[C@@H](N)CCCCNC(=O)CC[C@H](NC(=O)CC[C@H](NC(=O)CCCCCCCCCCCCCCCCCCC(=O)O)C(=O)O)C(=O)O)C(=O)N[C@@H](CC(N)=O)C(=O)N[C@@H]([C@@H](C)O)C(=O)N[C@@H](C)C(=O)N[C@@H]([C@@H](C)O)C(=O)N1)[C@@H](C)O)C(=O)N[C@@H](CC(C)C)C(=O)N1CCC[C@H]1C(=O)N1CCC[C@H]1C(=O)N[C@H](C(=O)N[C@@H](CC(N)=O)C(=O)N[C@H](C(=O)NCC(=O)N[C@@H](CO)C(=O)N[C@@H](CC(N)=O)C(=O)N[C@H](C(=O)N[C@@H](Cc1ccc(O)cc1)C(N)=O)[C@@H](C)O)C(C)C)[C@@H](C)O` [Peptide 116] (H-K([γGlu-γGlu-C20 diacid])CNTATCATQRLAEFLRHSSNNFGPILPPTNVGSNTY-NH2; disulfide 2-7), the concentration giving a half-maximal response (EC50) was 9050 pM in series [5], 23.7 pM in series [6], 1210 pM in series [1] and 9560 pM in series [4]. In addition, in the series on lean rats (at 12 h), the “Cummulative food intake (% vehicle treated intake) At 12 h” value is 51.7 % vehicle treated intake. For the same molecule, in the series on lean rats (at 24 h), the “Cummulative food intake (% vehicle treated intake) At 24 h” value was 43.1 % vehicle treated intake. Further, the “Cummulative food intake (% vehicle treated intake) At 48 h” value in the series on lean rats (at 48 h) is reported as 50.2 % vehicle treated intake. The “Ratio (selectivity hAMYR vs hCTR, ratio of EC50 values at the two receptors)” value in series [1] was found to be 8.
